Results taken from patent US20090012150A1, “Stablized Pharmaceutical Composition Comprising an Amorphous Active Substance” (priority 2002, published 2009).
Like-named read-outs stand apart in the source and are kept apart here.

Settings: 6 days at 80° C.
Description: Nitrogen of 99% purity (vol/vol) purity was used as an inert gas. The samples were stored at 80° C. for 6 days, and then the assay of impurities was determined by High Performance Liquid Chromatography.
The oxygen content in the vials was determined by gas chromatography with a mass spectrometric detector (GC/MS).
The degradation products were determined by […] Agilent Technologies (Waldbronn, Germany) model HP 1100. Chromatograms were recorded by a UV detector at 250 nm. The column Chromolit Performance RP-18e 100×4.6 mm (Merck, Darmstadt, Germany) and the gradient of mobile phase A: 20 mM ammonium acetate pH 4.0, 5% (v/v) tetrahydrofuran and 25% (v/v) acetonitrile and the gradient of mobile phase B: 20 mM ammonium acetate pH 4.0, 5% (v/v) tetrahydrofuran and 70 (v/v) acetonitrile were used. The composition of the mobile phase was changed so that initially and to minute 2 there was 25% of mobile phase B (75% of mobile phase A), from minute 2 to minute 4.7 the composition of the mobile phase changed linearly to 100% mobile phase B and it remained such to the end of the analysis at minute 5.5. Flow rate of the mobile phase was 7 ml/min. […] The samples of atorvastatin calcium were dissolved in the solvent 200 mM Tris p H 7, 40% (v/v) acetonitrile of the concentration 0.5 mg/ml.

[1] = oxygen content in atmosphere 0.6 %
[2] = oxygen content in atmosphere 2.8 %, hemi calcium salt
[3] = oxygen content in atmosphere 12.2 %, hemi calcium salt
[4] = oxygen content in atmosphere 21.3 %, hemi calcium salt

Structure (SMILES) | Increase in the assay of degradation products in % in reference to starting active substance [1] [%] | Increase in the assay of degradation products in % in reference to starting active substance [2] [%] | Increase in the assay of degradation products in % in reference to starting active substance [3] [%] | Increase in the assay of degradation products in % in reference to starting active substance [4] [%]
CC(C)c1c(C(=O)Nc2ccccc2)c(-c2ccccc2)c(-c2ccc(F)cc2)n1CC[C@@H](O)C[C@@H](O)CC(=O)O.CC(C)c1c(C(=O)Nc2ccccc2)c(-c2ccccc2)c(-c2ccc(F)cc2)n1CC[C@@H](O)C[C@@H](O)CC(=O)O.CC(C)c1c(C(=O)Nc2ccccc2)c(-c2ccccc2)c(-c2ccc(F)cc2)n1CC[C@@H](O)C[C@@H](O)CC(=O)[O-].CC(C)c1c(C(=O)Nc2ccccc2)c(-c2ccccc2)c(-c2ccc(F)cc2)n1CC[C@@H](O)C[C@@H](O)CC(=O)[O-].[Ca+2] (relative stereo) [Amorphous atorvastatin calcium, (R—(R*, R*))-2-(4-fluorophenyl)-β,δ-dihydroxy-5-(1-methylethyl)-3-phenyl-4((phenylamino)carbonyl)-1H-pyrrole-1-heptanoic acid hemi calcium salt] | 0 | 0.13 | 0.49 | 0.89
CC(C)c1c(C(=O)Nc2ccccc2)c(-c2ccccc2)c(-c2ccc(F)cc2)n1CC[C@@H](O)C[C@@H](O)CC(=O)O.CC(C)c1c(C(=O)Nc2ccccc2)c(-c2ccccc2)c(-c2ccc(F)cc2)n1CC[C@@H](O)C[C@@H](O)CC(=O)O.CC(C)c1c(C(=O)Nc2ccccc2)c(-c2ccccc2)c(-c2ccc(F)cc2)n1CC[C@@H](O)C[C@@H](O)CC(=O)[O-].CC(C)c1c(C(=O)Nc2ccccc2)c(-c2ccccc2)c(-c2ccc(F)cc2)n1CC[C@@H](O)C[C@@H](O)CC(=O)[O-].[Ca+2] (relative stereo) [Crystalline atorvastatin calcium, (R—(R*, R*))-2-(4-fluorophenyl)-β,δ-dihydroxy-5-(1-methylethyl)-3-phenyl-4((phenylamino)carbonyl)-1H-pyrrole-1-heptanoic acid hemi calcium salt] | 0 | 0 | 0.02 | 0.05
